Source: PubChem BioAssay (NCI)
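Test compounds were applied to cells in 96-well plates for 48 hours at 5 doses. Abbreviation: GI50, concentration required for 50% inhibition of growth. TGI denotes the concentration required for complete inhibition of growth.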

Key:
Assay in all cases: NCI tumour cell line growth inhibition, 48 h
786-0 renal = tested on: 786-0 renal
A498 renal = tested on: A498 renal
A549 NSCLC = tested on: A549 NSCLC
ACHN renal = tested on: ACHN renal
BT-549 breast = tested on: BT-549 breast
CAKI-1 renal = tested on: CAKI-1 renal
CCRF-CEM leukemia = tested on: CCRF-CEM leukemia
COLO 205 colon = tested on: COLO 205 colon
DU-145 prostate = tested on: DU-145 prostate
EKVX NSCLC = tested on: EKVX NSCLC
HCC-2998 colon = tested on: HCC-2998 colon
HCT-116 colon = tested on: HCT-116 colon
HCT-15 colon = tested on: HCT-15 colon
HL-60(TB) leukemia = tested on: HL-60(TB) leukemia
HOP-62 NSCLC = tested on: HOP-62 NSCLC
HOP-92 NSCLC = tested on: HOP-92 NSCLC
HS 578T breast = tested on: HS 578T breast
HT29 colon = tested on: HT29 colon
IGROV1 ovarian = tested on: IGROV1 ovarian
K-562 leukemia = tested on: K-562 leukemia
KM12 colon = tested on: KM12 colon
LOX IMVI melanoma = tested on: LOX IMVI melanoma
M14 melanoma = tested on: M14 melanoma
MALME-3M melanoma = tested on: MALME-3M melanoma
MCF7 breast = tested on: MCF7 breast
MDA-MB-231 breast = tested on: MDA-MB-231 breast
MDA-MB-435 = tested on: MDA-MB-435
MDA-MB-468 breast = tested on: MDA-MB-468 breast
MOLT-4 leukemia = tested on: MOLT-4 leukemia
NCI-H226 lung = tested on: NCI-H226 lung
NCI-H23 lung = tested on: NCI-H23 lung
NCI-H460 lung = tested on: NCI-H460 lung
NCI-H522 lung = tested on: NCI-H522 lung
OVCAR-3 ovarian = tested on: OVCAR-3 ovarian
OVCAR-4 ovarian = tested on: OVCAR-4 ovarian
OVCAR-5 ovarian = tested on: OVCAR-5 ovarian
OVCAR-8 ovarian = tested on: OVCAR-8 ovarian
PC-3 prostate = tested on: PC-3 prostate
RPMI-8226 leukemia = tested on: RPMI-8226 leukemia
RXF 393 renal = tested on: RXF 393 renal
SF-268 CNS = tested on: SF-268 CNS
SF-295 CNS = tested on: SF-295 CNS
SF-539 CNS = tested on: SF-539 CNS
SK-MEL-2 melanoma = tested on: SK-MEL-2 melanoma
SK-MEL-28 melanoma = tested on: SK-MEL-28 melanoma
SK-MEL-5 melanoma = tested on: SK-MEL-5 melanoma
SK-OV-3 ovarian = tested on: SK-OV-3 ovarian
SN12C renal = tested on: SN12C renal
SNB-19 CNS = tested on: SNB-19 CNS
SR leukemia = tested on: SR leukemia
SW-620 colon = tested on: SW-620 colon
T-47D breast = tested on: T-47D breast
TK-10 renal = tested on: TK-10 renal
U251 CNS = tested on: U251 CNS
UACC-257 melanoma = tested on: UACC-257 melanoma
UACC-62 melanoma = tested on: UACC-62 melanoma
UO-31 renal = tested on: UO-31 renal

## Cn1cc(-c2cc3nc(-c4cn(C)c5ncc(Br)cc45)cc(N)n3n2)c2cc(F)ccc21
786-0 renal
  GI50: 4.64 µM
  TGI: 17 µM
A498 renal
  GI50: 13.5 µM
  TGI: 30.2 µM
A549 NSCLC
  GI50: 3.37 µM
  TGI: 16.8 µM
ACHN renal
  GI50: 3.72 µM
  TGI: 13.2 µM
BT-549 breast
  GI50: 10.9 µM
  TGI: 23.6 µM
CAKI-1 renal
  GI50: 8.11 µM
  TGI: 22.5 µM
CCRF-CEM leukemia
  GI50: 8.29 µM
  TGI: > 100 µM
COLO 205 colon
  GI50: 12.6 µM
  TGI: 40.7 µM
DU-145 prostate
  GI50: 5.16 µM
  TGI: 19.3 µM
EKVX NSCLC
  GI50: 11.4 µM
  TGI: 29.7 µM
HCC-2998 colon
  GI50: 7.19 µM
  TGI: 27.6 µM
HCT-116 colon
  GI50: 15 µM
  TGI: 32.3 µM
HCT-15 colon
  GI50: 3.73 µM
  TGI: 16.4 µM
HL-60(TB) leukemia
  GI50: 12.1 µM
  TGI: 73.1 µM
HOP-62 NSCLC
  GI50: 7.8 µM
  TGI: 24.3 µM
HOP-92 NSCLC
  GI50: 11.3 µM
  TGI: 33.8 µM
HS 578T breast
  GI50: 10.7 µM
  TGI: 48.6 µM
HT29 colon
  GI50: 3.18 µM
  TGI: 11.3 µM
IGROV1 ovarian
  GI50: 3.91 µM
  TGI: 14.1 µM
K-562 leukemia
  GI50: 6 µM
  TGI: > 100 µM
KM12 colon
  GI50: 12.9 µM
  TGI: 49 µM
LOX IMVI melanoma
  GI50: 1.91 µM
  TGI: 3.47 µM
M14 melanoma
  GI50: 4.05 µM
  TGI: 14.9 µM
MALME-3M melanoma
  GI50: 3.43 µM
  TGI: 12.1 µM
MCF7 breast
  GI50: 3.6 µM
  TGI: 12.8 µM
MDA-MB-231 breast
  GI50: 2.9 µM
  TGI: 10 µM
MDA-MB-435
  GI50: 6.19 µM
  TGI: 20.1 µM
MDA-MB-468 breast
  GI50: 1.95 µM
  TGI: 4.19 µM
MOLT-4 leukemia
  GI50: 5.98 µM
  TGI: > 100 µM
NCI-H226 lung
  GI50: 5.36 µM
  TGI: 19.8 µM
NCI-H23 lung
  GI50: 7.44 µM
  TGI: 21.3 µM
NCI-H460 lung
  GI50: 3.44 µM
  TGI: 11.6 µM
NCI-H522 lung
  GI50: 5.61 µM
  TGI: 21.6 µM
OVCAR-3 ovarian
  GI50: 11.1 µM
  TGI: 27 µM
OVCAR-4 ovarian
  GI50: 4.51 µM
  TGI: 19.3 µM
OVCAR-5 ovarian
  GI50: 12.5 µM
  TGI: 29.4 µM
OVCAR-8 ovarian
  GI50: 6.2 µM
  TGI: 20.9 µM
PC-3 prostate
  GI50: 10.4 µM
  TGI: 46.8 µM
RPMI-8226 leukemia
  GI50: 10.1 µM
  TGI: > 100 µM
RXF 393 renal
  GI50: 2.54 µM
  TGI: 5.96 µM
SF-268 CNS
  GI50: 19.2 µM
  TGI: 79.8 µM
SF-295 CNS
  GI50: 1.8 µM
  TGI: 3.82 µM
SF-539 CNS
  GI50: 3.54 µM
  TGI: 13 µM
SK-MEL-2 melanoma
  GI50: 11.4 µM
  TGI: 24.2 µM
SK-MEL-28 melanoma
  GI50: 3.9 µM
  TGI: 14.4 µM
SK-MEL-5 melanoma
  GI50: 12.5 µM
  TGI: 25.4 µM
SK-OV-3 ovarian
  GI50: 15 µM
  TGI: 32.4 µM
SN12C renal
  GI50: 4.41 µM
  TGI: 19.8 µM
SNB-19 CNS
  GI50: 11 µM
  TGI: 23.8 µM
SR leukemia
  GI50: 4.58 µM
  TGI: > 100 µM
SW-620 colon
  GI50: 6.46 µM
  TGI: 21.5 µM
T-47D breast
  GI50: 3.25 µM
  TGI: 15.6 µM
TK-10 renal
  GI50: 4.92 µM
  TGI: 18.8 µM
U251 CNS
  GI50: 3.23 µM
  TGI: 11.5 µM
UACC-257 melanoma
  GI50: 7.29 µM
  TGI: 21.4 µM
UACC-62 melanoma
  GI50: 2.64 µM
  TGI: 10.9 µM
UO-31 renal
  GI50: 12.2 µM
  TGI: 25.4 µM
